ChEMBL document CHEMBL1201862, “PubChem BioAssay data set” (2004)
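Assay format: 96-well plates, 48-hour exposure. GI50 = concentration required for 50% inhibition of growth.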 Active and inactive are the calls of the source. Cut-off read from the data, not from the text of the source: active = GI50 up to about 1.1 µM and inactive = higher.

Columns and labels:
Assay in all cases: NCI anticancer screen, dose series, 48 h
UACC-257 = system: UACC-257
MDA-MB-435 = system: MDA-MB-435
UO-31 = system: UO-31
HCC 2998 = system: HCC 2998
HOP-92 = system: HOP-92
NCI-H226 = system: NCI-H226
Hs-578T = system: Hs-578T
786-0 = system: 786-0
OVCAR-5 = system: OVCAR-5
DU-145 = system: DU-145
A498 = system: A498
MDA-MB-231 = system: MDA-MB-231
SNB-75 = system: SNB-75
CAKI-1 = system: CAKI-1
HCT-15 = system: HCT-15
HOP-62 = system: HOP-62
T47D = system: T47D
TK-10 = system: TK-10
COLO 205 = system: COLO 205

## FC(F)(F)c1ccc2nc3n(c2c1)C(c1c(Cl)cccc1Cl)SC3 (stereo not drawn)
UACC-257
  GI50: 14.1 µM (inactive)
MDA-MB-435
  GI50: 15 µM (inactive)
UO-31
  GI50: 13.8 µM (inactive)
HCC 2998
  GI50: 18.5 µM (inactive)
HOP-92
  GI50: 4.65 µM (inactive)
NCI-H226
  GI50: 17.3 µM (inactive)
Hs-578T
  GI50: 23.1 µM (inactive)
786-0
  GI50: 14.7 µM (inactive)
OVCAR-5
  GI50: 15.9 µM (inactive)
DU-145
  GI50: 17 µM (inactive)
A498
  GI50: 19.8 µM (inactive)
MDA-MB-231
  GI50: 18.1 µM (inactive)
SNB-75
  GI50: 13 µM (inactive)
CAKI-1
  GI50: 14.8 µM (inactive)
HCT-15
  GI50: 14.2 µM
HOP-62
  GI50: 15.8 µM (inactive)
T47D
  GI50: 11.2 µM (inactive)
TK-10
  GI50: 18.3 µM (inactive)

## CSc1ncc2c(C#N)c3ccccn3c(=O)c2n1
UACC-257
  GI50: > 100 µM (inactive)
MDA-MB-435
  GI50: > 100 µM (inactive)
COLO 205
  GI50: > 100 µM (inactive)
UO-31
  GI50: > 100 µM (inactive)
HCC 2998
  GI50: > 100 µM (inactive)
HOP-92
  GI50: > 100 µM (inactive)
NCI-H226
  GI50: > 100 µM (inactive)
Hs-578T
  GI50: > 100 µM (inactive)
786-0
  GI50: > 100 µM (inactive)
OVCAR-5
  GI50: > 100 µM (inactive)
DU-145
  GI50: > 100 µM (inactive)
A498
  GI50: > 100 µM (inactive)
MDA-MB-231
  GI50: > 100 µM (inactive)
SNB-75
  GI50: > 100 µM (inactive)
CAKI-1
  GI50: > 100 µM (inactive)
HCT-15
  GI50: > 100 µM
HOP-62
  GI50: > 100 µM (inactive)
T47D
  GI50: > 100 µM (inactive)
TK-10
  GI50: > 100 µM (inactive)

## COc1cccc2c1C(=O)c1c(O)c3c(c(O)c1C2=O)C[C@@](O)(C(=O)CO)C[C@@H]3OC1CC(N2CCOCC2C#N)C(O)C(C)O1 (stereo partly drawn)
UACC-257
  GI50: 5.97e-05 µM (active)
MDA-MB-435
  GI50: 7.4e-05 µM (active)
COLO 205
  GI50: 0.000136 µM (active)
UO-31
  GI50: 5.52e-05 µM (active)
HCC 2998
  GI50: 5.37e-05 µM (active)
HOP-92
  GI50: 9.53e-05 µM (active)
NCI-H226
  GI50: 1.46e-05 µM (active)
Hs-578T
  GI50: 5.73e-05 µM (active)
786-0
  GI50: 0.001 µM (active)
OVCAR-5
  GI50: 4.98e-05 µM (active)
DU-145
  GI50: 4.15e-05 µM (active)
A498
  GI50: 2.58e-05 µM (active)
MDA-MB-231
  GI50: 0.00011 µM (active)
SNB-75
  GI50: 1.37e-05 µM (active)
CAKI-1
  GI50: 3.53e-05 µM (active)
HCT-15
  GI50: 4.51e-05 µM
HOP-62
  GI50: 2.32e-05 µM (active)
T47D
  GI50: 0.000102 µM (active)
TK-10
  GI50: 0.000149 µM (active)

## O=c1c2ccccc2sc2ccccc12
UACC-257
  GI50: > 100 µM (inactive)
MDA-MB-435
  GI50: > 100 µM (inactive)
COLO 205
  GI50: > 100 µM (inactive)
UO-31
  GI50: > 100 µM (inactive)
HCC 2998
  GI50: > 100 µM (inactive)
HOP-92
  GI50: > 100 µM (inactive)
NCI-H226
  GI50: > 100 µM (inactive)
Hs-578T
  GI50: > 100 µM (inactive)
786-0
  GI50: > 100 µM (inactive)
OVCAR-5
  GI50: > 100 µM (inactive)
DU-145
  GI50: > 100 µM (inactive)
A498
  GI50: > 100 µM (inactive)
MDA-MB-231
  GI50: > 100 µM (inactive)
SNB-75
  GI50: > 100 µM (inactive)
CAKI-1
  GI50: > 100 µM (inactive)
HCT-15
  GI50: > 100 µM
HOP-62
  GI50: > 100 µM (inactive)
T47D
  GI50: > 100 µM (inactive)
TK-10
  GI50: > 100 µM (inactive)

## CCOC(=O)NN(C(=O)OCC)C(=C(c1ccccc1)N1CCOCC1)N(NC(=O)OCC)C(=O)OCC
UACC-257
  GI50: > 100 µM (inactive)
MDA-MB-435
  GI50: > 100 µM (inactive)
COLO 205
  GI50: > 100 µM (inactive)
UO-31
  GI50: 58.5 µM (inactive)
HCC 2998
  GI50: > 100 µM (inactive)
HOP-92
  GI50: > 100 µM (inactive)
NCI-H226
  GI50: > 100 µM (inactive)
Hs-578T
  GI50: > 100 µM (inactive)
786-0
  GI50: > 100 µM (inactive)
OVCAR-5
  GI50: > 100 µM (inactive)
DU-145
  GI50: > 100 µM (inactive)
A498
  GI50: > 100 µM (inactive)
MDA-MB-231
  GI50: > 100 µM (inactive)
SNB-75
  GI50: 44 µM (inactive)
CAKI-1
  GI50: > 100 µM (inactive)
HCT-15
  GI50: > 100 µM
HOP-62
  GI50: > 100 µM (inactive)
T47D
  GI50: > 100 µM (inactive)
TK-10
  GI50: > 100 µM (inactive)

## O=[N+]([O-])c1cc(Br)cc2cc(Cl)cnc12
UACC-257
  GI50: > 100 µM (inactive)
MDA-MB-435
  GI50: > 100 µM (inactive)
COLO 205
  GI50: > 100 µM (inactive)
UO-31
  GI50: > 100 µM (inactive)
HCC 2998
  GI50: > 100 µM (inactive)
HOP-92
  GI50: 1.02 µM (active)
NCI-H226
  GI50: > 100 µM (inactive)
Hs-578T
  GI50: 36.9 µM (inactive)
786-0
  GI50: > 100 µM (inactive)
OVCAR-5
  GI50: > 100 µM (inactive)
DU-145
  GI50: > 100 µM (inactive)
A498
  GI50: 75.7 µM (inactive)
MDA-MB-231
  GI50: > 100 µM (inactive)
SNB-75
  GI50: 31.8 µM (inactive)
CAKI-1
  GI50: > 100 µM (inactive)
HCT-15
  GI50: > 100 µM
HOP-62
  GI50: > 100 µM (inactive)
T47D
  GI50: 39.8 µM (inactive)
TK-10
  GI50: > 100 µM (inactive)
